Results as given in US6949507B2, “Use of agents which bind G proteins for treating septic shock” (Dana-Farber Cancer Institute, Inc., priority 1997, dated 2005).
“Also recorded” adds a separate entry of the source.

Tests used:
human monocytes [1] = test: PMA-induced cytokine production from human monocytes; type: cell-based; conditions: 100 ng/ml PMA
Experimental: (§1) Freshly isolated human monocytes, human PBMC and U373-CD14 cells were incubated with 10 ng/ml LPS (E coli 0111:B4, Sigma, St. Louis, Mo.), 100 ng/ml PMA or were untreated in supplemented RPMI [10% FCS; 2 mM L-glutamine and penicillin/streptomycin] with or without various concentrations of mastoparan for 18 hours at 37° C. in 24 well tissue culture dishes. IL-6 and TNF-α levels were determined by ELISA (Endogen Inc., Boston, Mass.) of supernatants harvested at 4 hours (for TNF-α) and at 18 hours (for IL-6) after LPS stimulation.
(§2) In order to determine if the effect of mastoparan on LPS-induced cytokine production was due to a direct effect on monocytes, a highly enriched monocyte population was tested for the effect of LPS and mastoparan on cytokine production from these cells. Freshly isolated human monocytes were treated with mastoparan and LPS, after which IL-6 and TFN cytokine levels were measured in the tissue culture supernatants of the cells (FIG. 3A). […] When mastoparan was used in conjunction with LPS, cytokine production was diminished. […] Mastoparan had little effect on cytokine production from PMA stimulated cells (FIG. 3B), indicating the specificity of mastoparan action, and lack of mastoparan toxicity. Mastoparan had no effect on cell viability as measured by trypan blue uptake even after 36 hours of continuous mastoparan incubation.

p38 MAP kinase = test: LPS-induced p38 MAP kinase phosphorylation / nuclear translocation (immunoblotting); type: cell-based, human
Experimental: (§3) For detection of p38, phosphorylated p38 and phosphorylated Erk kinases in monocyte lysates, monocytes were subjected to various treatments and lysed in boiling reducing Laemmli sample buffer. The lysates were subjected to electrophoresis through a 10% SDS PAGE gel and were then transferred to nitrocellulose (NC). After washing twice with TBS-Twwen 20(0.1%) the NC was placed in a solution of Ponceau S dye to ensure equal loading and left in blocking buffer [1×TBS; […]; 5% milk] for 1 hour. After blocking and washing, the NC was incubated with anti-p38 N+C terminus (Santa Cruz Biotechnology Inc., Santa Cruz, Calif.) for 2-3 hours or with anti-phosphorylated p38 and Erk antibodies (New England Biolabs, Inc., Beverly, Mass.) for 18 hours. Membranes were washed three times in TBS-Tween 20 and were incubated for 30 minutes with horseradish peroxidase conjugated donkey-α-rabbit antibody in blocking buffer (Amersham Corp., Arlington Heights, Ill.). Membranes were washed an additional six times [3×TBS-Tween-20; 3×TBS], and were developed by exposure to ECL chemicals (Amersham corp., Arlington Heights, Ill.) and visualized by exposure to film.
For detection of p38 in nuclear extracts, cells after a variety of treatments were subject to lysis and nuclear extraction as described in Lerder et al., J. Immunol. 152:77-86 (1994). The nuclear extracts were subjected to protein quantitation by Micro BCA assay (Pierce, Rockford, Ill.) using a BSA standard. The details of the blotting procedure were the same as above except that […] of extract was used.
Because mastoparan had profound effects on cytokine production and p38 MAP kinase is involved,in LPS induced-signaling, the effect of mastoparan on MAP kinase activation was evaluated. For full activation, p38 MAP kinase requires phosphorylation on both threonine and tyrosine residues (Raingeaud et al., J. Biol. Chem., 270: 7420-7426, 1995). Detection of dual-phosphorylated p38 MAP kinase by monoclonal antibodies specific for the dual-phosphorylated form of p38 was used as a measure of p38 activation. […]

human monocytes [2] = test: LPS-induced IL-6 and TNF production from freshly isolated human monocytes (ELISA); type: cell-based
Description: (§4) Freshly isolated human peripheral blood mononuclear cells (PBMC) and monocytes were obtained from leukopaks (discarded leukocyte from platelet donations). The cells were fractionated on FICOLL-HYPAQUE™ gradients, washed, treated with tris-buffered NH4Cl to eliminate RBCs and washed to obtain PMBCs. Monocytes were obtained by depleting the PBMCs of T cells and NK cells by negative selection asking standard techniques. T cells and NK cells were removed by treatment with anti-CD3 and anti-CD2 monoclonal antibodies followed by goat anti-mouse Ig conjugated magnetic beads at a 10:1 bead:cell ratio. The monocyte preparations were at least 80-85% monocytes, as determined by anti-CD14 staining and forward and slide light scatter analysis using a FACScan (Becton-Dickenson, Elmhurst, Ill.). Less than 2% of the contaminating cells in the monocyte preparation were T cells and no NK cells could be detected. Monocytes were maintained in Ham's F-12 10% FCS, L-Glutamine and penicillin/streptomyocin at 37° C. in 5% CO2.
as §1, §2

[3] = tested on: LPS-induced lethal endotoxic shock; test: LPS-induced lethal endotoxic shock in rats; type: in vivo, Wistar rats
Experimental: Wistar rats (200 g) were obtained from Charles River Laboratories. Rats were treated with 3 mg/kg mastoparan by intravenous injection in the tail vein, immediately followed by 15 mg/kg lead acetate and 5 μg/kg LPS 0111:B4 intravenously. Mortality was assessed up to 96 hours following LPS treatment. Mortality frequency was compared by Fisher exact test and statistical analysis was performed using Yates corrected Chi square test.
To determine the effect of mastoparan in vivo, the effect of mastoparan on LPS-induced lethal endotoxic shock in rats was assessed.

U373-CD14 cells = test: LPS-induced IL-6 production from U373-CD14 transfectants; type: cell-based
Experimental: U373 cell CD14 transfectants (U373-CD14) were maintained in EMEM supplemented with 10% FCS, L-Glutamine and penicillin/streptomyocin at 37° C. in 5% CO2.
as §1
In addition, the effect of mastoparan on LSP-induced cytokine production from an LPS responsive, CD14 transfected cell line was determined. LPS treatment of U373-CD14 transfectants induced an LPS dose-dependent production of IL-6 (FIG. 4). […] IL-6 production induced by 10 ng/ml LPS was also ablated by treatment of the cells with mastoparan, while at 100 ng/ml of LPS, mastoparan reduced IL-6 levels by approximately one third. At high concentrations of LPS (1 μg/ml) the IL-6 responses of these cells were not inhibited by treatment with the anti-CD14 monoclonal antibody. […] At LPS concentrations of 1 μg/ml, mastoparan was ineffective at reducing cytokine responses from these cells. Thus, CD14-independent LPS signals were not inhibited by mastoparan.

Erk kinases = test: Erk 1 and 2 MAP kinase activation in human monocytes (immunoblotting); type: cell-based
Experimental: as §3
The lack of substantial LPS-induced Erk kinase phosphorylation in freshly isolated monocytes is consistent with results obtained with other non-transformed human cells (Nick et al., J. Immunol., 156: 4867-4875, 1996). […]

human PBMCs = test: LPS-induced IL-6 production from human PBMCs (ELISA); type: cell-based; conditions: for inhibition of LPS-induced IL-6 production: LPS stimulated human PBMCs, 10 ng/ml LPS, IL-6 at 18 hours
Description: as §4, §1
Freshly isolated PBMCs were treated with LPS and/or peptides (mastoparan or the MAS-17 control peptide) and IL-6 levels were measured in the tissue culture supernatants of the cells (FIG. 2). PBMCs produced IL-6 in response to LPS, while neither mastoparan nor MAS-17 stimulated IL-6 production from the PBMCs.

human monocytes [4] = test: Cell viability by trypan blue uptake; type: cell-based; conditions: after 36 hours of continuous mastoparan incubation
Experimental: as §2

[5] = LPS-stimulated, various concentrations of mastoparan (FIG. 3A)
[6] = 3 mg/kg mastoparan i.v. + lead acetate + 5 μg/kg LPS, dead/total

Substance: mastoparan
- cytokine production from PMA stimulated cells (human monocytes [1]): little effect
- LPS-induced p38 MAP kinase activity (p38 MAP kinase; FIG. 5B): reduces
- LPS-induced phosphorylation of p38 MAP kinase (p38 MAP kinase; monocytes and PBMC): inhibition; also recorded: reduced
- LPS-induced nuclear translocation of p38 (p38 MAP kinase; nuclear extracts): inhibited
- inhibition of IL-6 production in human monocytes (human monocytes [2]; [5]): dose-dependent inhibition
- inhibition of TNF-α production in human monocytes (human monocytes [2]; [5]): dose-dependent inhibition
- LPS-induced cytokine production (human monocytes [2]; human monocytes, 13.34 μM mastoparan): totally ablated
- IL-6 production induced by mastoparan alone (human monocytes [2]; human monocytes, without LPS): induced neither
- TNF production induced by mastoparan alone (human monocytes [2]; human monocytes, without LPS): induced neither
- reduction of IL-6 production in monocytes stimulated with LPS (human monocytes [2]; mastoparan as low as 1.67 μM): dramatic reductions
- reduction of TNF production in monocytes stimulated with LPS (human monocytes [2]; mastoparan as low as 1.67 μM): dramatic reductions
- LPS-induced cytokine production from human monocytes (human monocytes [2]; mastoparan in conjunction with LPS, concentration not given): inhibition; also recorded: diminished
- Mortality Total (%) ([3]; 3 mg/kg mastoparan i.v. + lead acetate + 5 μg/kg LPS): 44.4%
- Mortality 14 hours [3, 6]: 7/18
- Mortality 24 hours [3, 6]: 8/18
- protection from LPS induced mortality ([3]; 3 mg/kg mastoparan i.v., 15 mg/kg lead acetate and 5 μg/kg LPS i.v., p<0.05 at 14 and 24 hours): significantly protect
- mortality at 96 hours relative to the 24 hour point ([3]; experiment continued for 96 hours): unchanged
- toxic effects when used alone in the model system ([3]; mastoparan alone, data not shown): did not have any toxic effects
- IL-6 production induced by LPS (U373-CD14 cells; U373-CD14 cells, 10 ng/ml LPS): ablated
- reduction of IL-6 levels (U373-CD14 cells; U373-CD14 cells, 100 ng/ml LPS): approximately one third
- IL-6 / cytokine responses at high LPS (CD14-independent) (U373-CD14 cells; U373-CD14 cells, 1 μg/ml LPS): ineffective
- CD14-dependent LPS induced signal transduction (U373-CD14 cells; U373-CD14 transfected cells (FIG. 4)): inhibits
- Erk kinase activation induced by LPS (Erk kinases): specific inhibition; also recorded: completely inhibited
- Erk kinase activation induced by PMA (Erk kinases): minimal effects
- inhibition of LPS-induced IL-6 production (human PBMCs): potent inhibitor
- inhibition of LPS-induced IL-6 production (human PBMCs; listed as mastoparan): inhibits; also recorded: dose-dependent
- LPS-induced IL-6 production (human PBMCs; human PBMCs, 13.3 μM mastoparan): totally ablated
- IL-6 production stimulated by peptide alone (human PBMCs; human PBMCs, peptide without LPS): neither
- cell viability as measured by trypan blue uptake (human monocytes [4]): no effect
